According to paper PMC7464270, “The Interaction of Bovine β-Lactoglobulin with Caffeic Acid: From Binding Mechanisms to Functional Complexes” (Biomolecules, 2020):

Target: T1, native bovine β-lactoglobulin (n-β-LG) (Bos taurus, UniProt P02754)
T1 construct: gene LGB; dimer prevails at physiological pH
T1 sequence (P02754 17-178): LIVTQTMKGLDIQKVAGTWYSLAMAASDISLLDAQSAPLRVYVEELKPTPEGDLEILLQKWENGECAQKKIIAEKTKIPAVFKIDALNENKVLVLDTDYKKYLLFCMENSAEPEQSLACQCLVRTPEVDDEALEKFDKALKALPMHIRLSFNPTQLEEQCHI
Assay: intrinsic tryptophan fluorescence quenching (excitation […] nm)
Type: binding
Conditions: native protein treated at 25 °C (measured at 23 ± 1 °C), Tris buffer pH 8.0; double-log

- n-β-LG / Kb (10^6 Mol^-1): 0.72 ± 0.03 10^6 Mol^-1
SMILES: O=C(O)/C=C/c1ccc(O)c(O)c1 [CA, caffeic acid]
